Assay results taken from the supplement of paper PMC10307832.

Key:
Assay in all cases: relative viability (nuclei count vs DMSO), 5 days (fraction); higher = more cells survive
Shikonin = compound: CC(C)=CC[C@@H](O)C1=CC(=O)c2c(O)ccc(O)c2C1=O [Shikonin]
Outline: (§1)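 Viability here means nuclei in treated wells divided by nuclei in vehicle wells, reported as the median across plates. Only plates with control CV below 25% and at least one doubling passed. Lung cancer cell lines in 1536-well plates were exposed to five √10-spaced library-drug doses for 5 days and counted from 4× Hoechst images in MetaXpress.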

[1] = compound: CC(C)N(CCCNC(=O)Nc1ccc(C(C)(C)C)cc1)C[C@H]1O[C@@H](n2ccc3c(N)ncnc32)[C@H](O)[C@@H]1O
Outline: as §1

[2] = compound: CC(C)N(CCCNC(=O)Nc1ccc(C(C)(C)C)cc1)C[C@H]1O[C@@H](n2ccc3c(N)ncnc32)[C@H](O)[C@@H]1O + Nc1nc2[nH]cc(CCc3ccc(C(=O)N[C@@H](CCC(=O)O)C(=O)O)cc3)c2c(=O)[nH]1 [Pemetrexed] (partner 0.2 µM)
Outline: (§2)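 One day after seeding in 1536-well plates, lung cancer cell lines were dosed by pin tool. Dosing was either single-drug or a fixed anchor-drug dose plus five library-drug doses (not always all listed) in √10 steps. After 5 days, nuclei were stained in one fix-and-stain step and counted on 4× images, and relative viability is the nuclei count of treated wells over that of vehicle wells, given as the median of duplicate plates.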

Shikonin + Alpelisib = compound: CC(C)=CC[C@@H](O)C1=CC(=O)c2c(O)ccc(O)c2C1=O [Shikonin] + Cc1nc(NC(=O)N2CCC[C@H]2C(N)=O)sc1-c1ccnc(C(C)(C)C(F)(F)F)c1 [Alpelisib] (partner 2 µM)
Outline: as §2

Row | Cell Line | relative viability (Shikonin; 0.01 µM) | relative viability (Shikonin; 0.1 µM) | relative viability (Shikonin; 0.3162 µM) | relative viability (Shikonin; 1 µM) | relative viability ([1]; 0.08 µM) | relative viability ([1]; 0.253 µM) | relative viability ([1]; 0.8 µM) | relative viability ([1]; 2.53 µM) | relative viability ([1]; 8 µM) | relative viability ([2]; first compound 0.08 µM) | relative viability ([2]; first compound 0.253 µM) | relative viability ([2]; first compound 0.8 µM) | relative viability ([2]; first compound 2.53 µM) | relative viability ([2]; first compound 8 µM) | relative viability (Shikonin + Alpelisib; first compound 0.01 µM) | relative viability (Shikonin + Alpelisib; first compound 0.1 µM) | relative viability (Shikonin + Alpelisib; first compound 0.3162 µM) | relative viability (Shikonin + Alpelisib; first compound 1 µM)
1 | LU99A | 1.02 | 1 | 0.996 | 0.923 | 0.876 | 0.842 | 1.04 | 0.979 | 1.02 | 0.178 | 0.206 | 0.176 | 0.204 | 0.167 | 0.592 | 0.671 | 0.576 | 0.441
2 | LXF-289 | 1.08 | 0.999 | 1.08 | 0.992 | 0.97 | 1.03 | 0.923 | 1.03 | 0.95 | 0.876 | 1 | 0.96 | 1.02 | 0.833 | 1.12 | 0.963 | 1.02 | 1.03
3 | NCI-H23 | 1.02 | 1.11 | 1 | 0.981 | 0.912 | 0.707 | 1.07 | 0.931 | 0.9 | 0.732 |  | 0.693 | 0.709 | 0.627 | 0.76 | 0.65 | 0.804 | 0.659
4 | NCI-H322M | 0.924 | 0.917 | 0.921 | 1.06 | 0.929 | 0.893 | 0.93 | 0.918 | 0.975 | 0.634 | 0.609 | 0.617 | 0.593 | 0.631 | 0.73 | 0.77 | 0.856 | 0.857
5 | NCI-H358 | 0.978 | 0.862 | 0.967 | 0.979 | 0.856 | 0.873 | 1.04 | 0.924 | 0.889 | 0.183 | 0.159 | 0.162 | 0.168 | 0.166 | 0.825 | 0.807 | 0.924 | 0.707
6 | NCI-H441 | 1.24 | 0.942 | 1.18 | 0.975 | 1.01 | 1.06 |  | 1.1 | 0.981 | 0.271 | 0.242 |  | 0.263 | 0.253 | 1.14 | 0.874 | 0.508 | 0.729
7 | NCI-H460 | 1.06 | 1.07 | 1.07 | 1.05 | 0.982 | 0.953 | 0.935 | 0.996 | 1.02 | 0.0586 | 0.06 | 0.0609 | 0.0624 | 0.0643 | 0.522 | 0.841 | 0.618 | 0.569
8 | NCI-H520 | 0.947 | 1.06 | 0.977 | 0.931 | 0.882 | 0.773 | 0.793 | 0.98 | 0.939 | 0.614 | 0.743 | 0.663 | 0.787 | 0.7 |  | 1.25 | 0.902 | 0.961
9 | NCI-H596 | 0.935 | 0.962 | 1.04 | 1.08 | 0.976 | 0.795 | 0.962 | 1.11 | 1.09 | 0.515 | 0.465 | 0.514 | 0.53 | 0.493 | 0.464 | 0.481 | 0.543 | 0.504
10 | NCI-H647 | 1.07 | 1.08 | 1.08 | 0.9 | 0.912 | 0.831 | 0.812 | 0.955 | 0.864 | 0.197 | 0.164 | 0.143 | 0.194 | 0.176 | 1.21 | 1.23 | 0.926 | 1.14
11 | NCI-H650 | 1.08 | 0.937 | 0.999 | 0.913 | 0.831 | 0.902 | 1.06 | 0.775 | 0.882 | 0.882 | 0.884 | 0.908 | 0.742 | 1.01 | 1.3 |  | 1.13 | 1.08
12 | NCI-H661 | 1 | 1.06 | 1.06 | 0.928 | 1.04 | 0.962 | 1.04 | 1.02 | 1 | 0.91 | 0.892 | 0.894 | 0.977 | 0.912 | 0.676 | 0.718 | 0.893 | 0.792
13 | NCI-H838 | 1.09 | 1.04 | 1.03 | 0.988 | 0.92 | 0.748 | 0.931 | 0.958 | 0.904 | 0.259 | 0.223 | 0.283 | 0.245 | 0.235 | 1.02 | 1.18 | 1.04 | 1.21
14 | NCI-H1355 | 0.981 | 1.08 | 1.02 | 1.04 | 0.913 | 0.915 | 0.75 | 1.03 | 0.879 | 0.964 | 1.05 | 0.761 | 1.03 | 0.976 | 0.819 | 0.823 | 0.943 | 0.927
15 | NCI-H1395 | 0.899 | 0.987 | 0.846 | 0.987 | 0.838 | 0.782 | 0.646 | 0.933 | 0.799 | 0.882 | 0.705 | 0.553 | 0.899 | 0.922 | 1.14 | 1.16 | 0.973 | 1
16 | NCI-H1437 | 0.989 | 1.01 | 0.998 | 0.989 | 0.926 | 0.941 | 0.92 | 0.965 | 0.957 | 0.31 | 0.307 | 0.325 | 0.296 | 0.283 | 0.987 | 1.14 | 0.987 | 1.1
17 | NCI-H1563 | 0.944 | 0.954 | 1.01 | 0.959 | 0.918 | 0.849 | 0.944 | 1.03 | 0.957 | 0.774 | 0.585 | 0.795 | 0.774 | 0.782 | 0.906 | 0.999 | 0.875 | 0.779
